Where two headings read alike, the source gives them in different places. No end group written: not given here.
Legend:
[1] = test system: MDRAB clinical strain AL87; type: cell-based, Acinetobacter baumannii
[2] = test system: MDRAB clinical strain U80; type: cell-based, Acinetobacter baumannii
Protocol: (§2) MBC were determined by extending the MIC procedure in sterilized 96-well polypropylene microtiter plates according to the broth microdilution guidelines of the Clinical and Laboratory Standards Institute with some modification[47]. […] In addition, 10 µL was drawn from each well with no visible turbidity onto LB agar plates and incubated for 24 h at 37 °C. The lowest concentration showing no visible growth on agar subculture was used as the MBC value. All experiments were performed in triplicate.

[3] = test system: MDRAB clinical strain AS40; type: cell-based, Acinetobacter baumannii
Protocol: as §2

[4] = test system: MDRAB strain MO91; type: cell-based, Acinetobacter baumannii; conditions: 24 h
Protocol: (§1) All AMPs and TP4 derivatives used in this study were synthesized by Kelowna International Scientific Inc. (Taipei City, Taiwan) with more than 95% purity, and their molecular weights were verified by mass spectrum analysis. MBC were determined by extending the MIC procedure in sterilized 96-well polypropylene microtiter plates according to the broth microdilution guidelines of the Clinical and Laboratory Standards Institute with some modification. Briefly, 5 × 10^5 CFU/mL of bacteria were inoculated in LB medium containing AMPs or antibiotic at final concentrations ranging from 512 to 1 μg/mL (from serial twofold dilutions). After incubation for 24 h at 37 °C, the lowest concentration showing no visible growth was used as the MIC value. In addition, 10 µL was drawn from each well with no visible turbidity onto LB agar plates and incubated for 24 h at 37 °C. The lowest concentration showing no visible growth on agar subculture was used as the MBC value. All experiments were performed in triplicate.

[5] = test system: MDRAB strain BF50; type: cell-based, Acinetobacter baumannii; conditions: 24 h
Protocol: as §1

[6] = test system: Acinetobacter baumannii 19,606; type: cell-based
Protocol: as §2

[7] = test system: MDRAB clinical strain AK29; type: cell-based, Acinetobacter baumannii
Protocol: as §2

[8] = test system: MDRAB clinical strain AF93; type: cell-based, Acinetobacter baumannii
[9] = test system: MDRAB clinical strain AG51; type: cell-based, Acinetobacter baumannii
Protocol: as §2

[10] = test system: MDRAB clinical strain AE5; type: cell-based, Acinetobacter baumannii
[11] = test system: MDRAB clinical strain AZ93; type: cell-based, Acinetobacter baumannii
[12] = test system: MDRAB clinical strain AO80; type: cell-based, Acinetobacter baumannii
Protocol: as §2

[13] = test system: MDRAB clinical strain AK61; type: cell-based, Acinetobacter baumannii
Protocol: as §2

[14] = test system: MDRAB clinical strain L87; type: cell-based, Acinetobacter baumannii
[15] = test system: MDRAB clinical strain D29; type: cell-based, Acinetobacter baumannii
Protocol: as §2

[16] = test system: Acinetobacter baumannii 17,978; type: cell-based;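 note: CLSI broth microdilution in 96-well polypropylene plates, MBC taken as lowest concentration giving no growth when clear wells were subcultured on LB agar for 24 h at 37 °C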
[17] = test system: MDRAB clinical strain Y92; type: cell-based, Acinetobacter baumannii
Protocol: as §2

[18] = test system: MDRAB clinical strain AF11; type: cell-based, Acinetobacter baumannii
Protocol: as §2

[19] = test system: MDRAB clinical strain AE6; type: cell-based, Acinetobacter baumannii
[20] = test system: MDRAB clinical strain J49; type: cell-based, Acinetobacter baumannii
Protocol: as §2

[21] = test system: MDRAB clinical strain K2; type: cell-based, Acinetobacter baumannii
[22] = test system: MDRAB clinical strain AN10; type: cell-based, Acinetobacter baumannii
[23] = test system: MDRAB clinical strain O59; type: cell-based, Acinetobacter baumannii
Protocol: as §2

[24] = test system: MDRAB clinical strain U95; type: cell-based, Acinetobacter baumannii
Protocol: as §2

[25] = test system: MDRAB clinical strain AF12; type: cell-based, Acinetobacter baumannii
[26] = test system: MDRAB clinical strain W11; type: cell-based, Acinetobacter baumannii
[27] = 10 µL from wells without turbidity onto LB agar, 24 h at 37 °C, triplicate

FIHHIIGGLFSAGKAIHRLIRRRRR [TP4] was tested, and the MBC ([1]; 24 h) was 16 µg/mL, the MIC ([1]; 24 h) was 16 µg/mL and the MBC ([2]; 24 h) was 32 µg/mL. The MIC ([2]; 24 h) was 32 µg/mL, the MBC ([3]; 24 h) was 32 µg/mL and the MIC ([3]; 24 h) was 32 µg/mL. It also gave an MBC [4] of 32 µg/mL, an MIC [4] of 16 µg/mL and an MBC [5] of 16 µg/mL. For the same sequence, the MIC [5] was 16 µg/mL, the MBC ([6]; 19,606, 24 h) was 16 µg/mL and the MIC ([6]; 19,606, 24 h) was 16 µg/mL. The MBC ([7]; 24 h) was 16 µg/mL, the MIC ([7]; 24 h) was 16 µg/mL and the MBC ([8]; 24 h) was 16 µg/mL. It also gave an MIC ([8]; 24 h) of 16 µg/mL, an MBC ([9]; 24 h) of 16 µg/mL and an MIC ([9]; 24 h) of 8 µg/mL. It also gave an MBC ([10]; 24 h) of 32 µg/mL, an MIC ([10]; 24 h) of 16 µg/mL and an MBC ([11]; 24 h) of 16 µg/mL. It also gave an MIC ([11]; 24 h) of 16 µg/mL, an MBC ([12]; 24 h) of 32 µg/mL and an MIC ([12]; 24 h) of 32 µg/mL. For the same sequence, the MBC ([13]; 24 h) was 32 µg/mL, the MIC ([13]; 24 h) was 32 µg/mL and the MBC ([14]; 24 h) was 32 µg/mL. The MIC ([14]; 24 h) was 32 µg/mL, the MBC ([15]; 24 h) was 32 µg/mL and the MIC ([15]; 24 h) was 32 µg/mL. It also gave an MBC ([16]; 17,978, 24 h) of 16 µg/mL, an MIC ([16]; 17,978, 24 h) of 16 µg/mL and an MBC ([17]; 24 h) of 16 µg/mL. The MIC ([17]; 24 h) was 16 µg/mL, the MBC ([18]; 24 h) was 16 µg/mL and the MIC ([18]; 24 h) was 16 µg/mL. The MBC ([19]; 24 h) was 16 µg/mL, the MIC ([19]; 24 h) was 16 µg/mL and the MBC ([20]; 24 h) was 16 µg/mL. It also gave an MIC ([20]; 24 h) of 16 µg/mL, an MBC ([21]; 24 h) of 32 µg/mL and an MIC ([21]; 24 h) of 16 µg/mL. It also gave an MBC ([22]; 24 h) of 8 µg/mL, an MIC ([22]; 24 h) of 8 µg/mL and an MBC ([23]; 24 h) of 32 µg/mL. For the same sequence, the MIC ([23]; 24 h) was 32 µg/mL, the MBC ([24]; 24 h) was 64 µg/mL and the MIC ([24]; 24 h) was 32 µg/mL. For the same sequence, the MBC ([25]; 24 h) was 16 µg/mL, the MIC ([25]; 24 h) was 16 µg/mL and the MBC ([26]; 24 h) was 16 µg/mL. For the same sequence, the MIC ([26]; 24 h) was 16 µg/mL.

“GLFGKLIKKFGRKAISYAVKKARGKH [Latarcin 2a]” showed an MIC ([1]; strain AL87, broth microdilution, LB, 24 h 37 °C) of 4 µg/mL, an MBC ([1]; strain AL87, subculture on LB agar, 24 h 37 °C) of 4 µg/mL and an MIC ([2]; strain U80, broth microdilution, LB, 24 h 37 °C) of 16 µg/mL. The MBC ([2]; strain U80, subculture on LB agar, 24 h 37 °C) was 16 µg/mL, the MIC ([3]; strain AS40, broth microdilution, LB, 24 h 37 °C) was 8 µg/mL and the MBC ([3]; strain AS40, subculture on LB agar, 24 h 37 °C) was 8 µg/mL. It also gave an MBC [6, 27] of 16 µg/mL, an MIC ([6]; broth microdilution (CLSI, modified), LB medium, 5 × 10^5 CFU/mL, 24 h at 37 °C, triplicate) of 16 µg/mL and an MIC ([7]; strain AK29, broth microdilution, LB, 24 h 37 °C) of 8 µg/mL. It also gave an MBC ([7]; strain AK29, subculture on LB agar, 24 h 37 °C) of 8 µg/mL, an MIC ([8]; strain AF93, broth microdilution, LB, 24 h 37 °C) of 8 µg/mL and an MBC ([8]; strain AF93, subculture on LB agar, 24 h 37 °C) of 8 µg/mL. It also gave an MIC ([9]; strain AG51, broth microdilution, LB, 24 h 37 °C) of 4 µg/mL, an MBC ([9]; strain AG51, subculture on LB agar, 24 h 37 °C) of 4 µg/mL and an MIC ([10]; strain AE5, broth microdilution, LB, 24 h 37 °C) of 8 µg/mL. The MBC ([10]; strain AE5, subculture on LB agar, 24 h 37 °C) was 8 µg/mL, the MIC ([11]; strain AZ93, broth microdilution, LB, 24 h 37 °C) was 8 µg/mL and the MBC ([11]; strain AZ93, subculture on LB agar, 24 h 37 °C) was 8 µg/mL. For the same sequence, the MIC ([12]; strain AO80, broth microdilution, LB, 24 h 37 °C) was 8 µg/mL, the MBC ([12]; strain AO80, subculture on LB agar, 24 h 37 °C) was 8 µg/mL and the MIC ([13]; strain AK61, broth microdilution, LB, 24 h 37 °C) was 8 µg/mL. It also gave an MBC ([13]; strain AK61, subculture on LB agar, 24 h 37 °C) of 8 µg/mL, an MIC ([14]; strain L87, broth microdilution, LB, 24 h 37 °C) of 16 µg/mL and an MBC ([14]; strain L87, subculture on LB agar, 24 h 37 °C) of 16 µg/mL. The MIC ([15]; strain D29, broth microdilution, LB, 24 h 37 °C) was 8 µg/mL, the MBC ([15]; strain D29, subculture on LB agar, 24 h 37 °C) was 16 µg/mL and the MBC [16, 27] was 16 µg/mL. It also gave an MIC ([16]; broth microdilution (CLSI, modified), LB medium, 5 × 10^5 CFU/mL, 24 h at 37 °C, lowest concentration with no visible growth, triplicate) of 16 µg/mL, an MIC ([17]; strain Y92, broth microdilution, LB, 24 h 37 °C) of 8 µg/mL and an MBC ([17]; strain Y92, subculture on LB agar, 24 h 37 °C) of 8 µg/mL. It also gave an MIC ([18]; strain AF11, broth microdilution, LB, 24 h 37 °C) of 8 µg/mL, an MBC ([18]; strain AF11, subculture on LB agar, 24 h 37 °C) of 8 µg/mL and an MIC ([19]; strain AE6, broth microdilution, LB, 24 h 37 °C) of 8 µg/mL. For the same sequence, the MBC ([19]; strain AE6, subculture on LB agar, 24 h 37 °C) was 8 µg/mL, the MIC ([20]; strain J49, broth microdilution, LB, 24 h 37 °C) was 64 µg/mL and the MBC ([20]; strain J49, subculture on LB agar, 24 h 37 °C) was 64 µg/mL. It also gave an MIC ([21]; strain K2, broth microdilution, LB, 24 h 37 °C) of 64 µg/mL, an MBC ([21]; strain K2, subculture on LB agar, 24 h 37 °C) of 64 µg/mL and an MIC ([22]; strain AN10, broth microdilution, LB, 24 h 37 °C) of 4 µg/mL. For the same sequence, the MBC ([22]; strain AN10, subculture on LB agar, 24 h 37 °C) was 4 µg/mL, the MIC ([23]; strain O59, broth microdilution, LB, 24 h 37 °C) was 16 µg/mL and the MBC ([23]; strain O59, subculture on LB agar, 24 h 37 °C) was 16 µg/mL. The MIC ([24]; strain U95, broth microdilution, LB, 24 h 37 °C) was 16 µg/mL, the MBC ([24]; strain U95, subculture on LB agar, 24 h 37 °C) was 16 µg/mL and the MIC ([25]; strain AF12, broth microdilution, LB, 24 h 37 °C) was 8 µg/mL. It also gave an MBC ([25]; strain AF12, subculture on LB agar, 24 h 37 °C) of 8 µg/mL, an MIC ([26]; strain W11, broth microdilution, LB, 24 h 37 °C) of 8 µg/mL and an MBC ([26]; strain W11, subculture on LB agar, 24 h 37 °C) of 8 µg/mL.
